According to ChEMBL document CHEMBL1129904, “3-chloro-4-carboxamido-6-arylpyridazines as a non-peptide class of interleukin-1 converting enzyme inhibitor” (Bioorg Med Chem Lett, 1997):

Experiments:
Caspase-1 = molecular target: T1, Caspase-1 (Homo sapiens, UniProt P29466); assay: Antiinflammatory activity measured as the concentration required to inhibit IL-1 beta converting enzyme
T1 sequence (P29466 whole entry): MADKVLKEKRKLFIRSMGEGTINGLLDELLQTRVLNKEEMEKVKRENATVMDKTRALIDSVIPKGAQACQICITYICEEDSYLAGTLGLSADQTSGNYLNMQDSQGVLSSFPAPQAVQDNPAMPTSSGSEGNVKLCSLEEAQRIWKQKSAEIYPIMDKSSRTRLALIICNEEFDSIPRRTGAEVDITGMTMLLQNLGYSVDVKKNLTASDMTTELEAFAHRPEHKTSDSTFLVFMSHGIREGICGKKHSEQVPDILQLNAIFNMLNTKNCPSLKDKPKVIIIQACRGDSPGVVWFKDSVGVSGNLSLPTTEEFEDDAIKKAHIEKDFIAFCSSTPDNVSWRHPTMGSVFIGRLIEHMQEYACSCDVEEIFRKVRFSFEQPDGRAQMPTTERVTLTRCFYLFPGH

Caspase-1 (Homo sapiens) = molecular target: T2, Caspase-1 (Homo sapiens) (UniProt P29466); assay: Inactivation of IL-1 beta converting enzyme
T2 sequence (whole entry): T1 sequence (P29466 whole entry)

| Structure (SMILES) | IC50 (Caspase-1) | k obs / 1 (Caspase-1 (Homo sapiens)) |
| --- | --- | --- |
| NC(=O)c1cc(-c2ccc(NS(=O)(=O)c3ccccc3)cc2)nnc1Cl | 18 µM |  |
| NC(=O)c1cc(-c2ccc(F)c(Cl)c2)nnc1Cl | 5.5 µM | 45 M⁻¹ s⁻¹ |
| NC(=O)c1cnnc(-c2ccncc2)c1 | > 250 µM |  |
| NC(=O)c1cc(-c2ccc([N+](=O)[O-])cc2)nnc1Cl | 0.7 µM |  |
| COc1ccc(-c2cc(C(N)=O)c(Cl)nn2)cc1 | 66 µM | < 5 M⁻¹ s⁻¹ |
| N#Cc1cc(-c2ccncc2)nnc1Cl | 110 µM |  |
| N#Cc1ccc(-c2cc(C(N)=O)c(Cl)nn2)cc1Cl | 0.5 µM | 225 M⁻¹ s⁻¹ |
| N#Cc1ccc(-c2cc(C(N)=O)c(Cl)nn2)cc1 | 1.5 µM |  |
| COc1nnc(-c2ccncc2)cc1C(N)=O | > 250 µM |  |
| O=C(NCc1ccccc1)c1cc(-c2ccncc2)nnc1Cl | 4 µM | 50 M⁻¹ s⁻¹ |
| NC(=O)c1cc(-c2ccc(Br)cc2)nnc1Cl | 5 µM |  |
| CCOC(=O)c1cc(-c2ccncc2)nnc1Cl | 13 µM | 10 M⁻¹ s⁻¹ |
| NC(=O)c1cc(-c2ccc(C(F)(F)F)cc2)nnc1Cl | 5 µM | 40 M⁻¹ s⁻¹ |
| CCOC(=O)CNC(=O)c1cc(-c2ccncc2)nnc1Cl | 2 µM |  |
| CNC(=O)c1cc(Cl)nnc1Cl | > 250 µM |  |
| NC(=O)c1cc(-c2ccncc2)cnc1Cl | > 250 µM |  |
| CSc1nnc(-c2ccncc2)cc1C(N)=O | > 250 µM |  |
| NC(=O)c1cc(-c2ccc(Cl)cc2)nnc1Cl | 5 µM |  |
| CN(C)C(=O)c1cc(-c2ccncc2)nnc1Cl | > 250 µM |  |
| CNC(=O)c1cc(-c2ccncc2)nnc1Cl | 10 µM | 25 M⁻¹ s⁻¹ |
| CS(=O)(=O)c1c(F)cc(-c2cc(C(N)=O)c(Cl)nn2)cc1F | 0.3 µM | 355 M⁻¹ s⁻¹ |
| NC(=O)c1cc(-c2ccncc2)nnc1Cl | 3 µM | 70 M⁻¹ s⁻¹ |
| Cc1c(-c2ccc(Cl)cc2)nnc(Cl)c1C(N)=O | > 250 µM |  |
| O=C(NCc1ccc(Cl)cc1Cl)c1cc(-c2ccncc2)nnc1Cl | 2 µM | 140 M⁻¹ s⁻¹ |
| NC(=O)c1cc(-c2ccccc2)nnc1Cl | 57 µM | < 5 M⁻¹ s⁻¹ |
